Data from ChEMBL document CHEMBL1152282, “SAR profiles of spirocyclic nicotinamide derived selective HDAC1/HDAC2 inhibitors (SHI-1:2)” (Bioorg Med Chem Lett, 2008).
In brackets after ≈: the same amount, converted by molar mass.

Legend:
[1] = Half life in rat at 2.0 mg/kg, iv; format: ADME, organism-based; set-up: dose 2 mg/kg, route intravenous; settings: in vivo
[2] = Plasma clearance in dog at 0.90 mg/kg, iv; format: ADME, organism-based, Canis lupus familiaris; set-up: dose 0.9 mg/kg, route intravenous; settings: 0.9 mg/kg
[3] = Half life in dog at 0.90 mg/kg, iv; format: ADME, organism-based, Canis lupus familiaris; set-up: dose 0.9 mg/kg, route intravenous; settings: in vivo, 0.9 mg/kg
[4] = Oral bioavailability in rat at 4.0 mg/kg; format: ADME, organism-based; settings: in vivo
[5] = Cmax in mouse at 150 mg/kg, po; format: ADME, organism-based; set-up: dose 150 mg/kg, route oral; settings: in vivo
[6] = AUC in mouse at 150 mg/kg, po; format: ADME, organism-based; set-up: dose 150 mg/kg, route oral; settings: plasma
[7] = Plasma clearance in rat at 2.0 mg/kg, iv; format: ADME, organism-based; set-up: dose 2 mg/kg, route intravenous
[8] = Volume of distribution at steady state in rat at 2.0 mg/kg, iv; format: ADME, organism-based; set-up: dose 2 mg/kg, route intravenous; settings: in vivo, read-out: Vdss
[9] = Plasma clearance in dog at 0.50 mg/kg, iv; format: ADME, organism-based, Canis lupus familiaris; set-up: dose 0.5 mg/kg, route intravenous; settings: 0.5 mg/kg
[10] = Volume of distribution at steady state in dog at 0.50 mg/kg, iv; format: ADME, organism-based, Canis lupus familiaris; set-up: dose 0.5 mg/kg, route intravenous; settings: in vivo, 0.5 mg/kg, read-out: Vdss
[11] = Half life in dog at 0.50 mg/kg, iv; format: ADME, organism-based, Canis lupus familiaris; set-up: dose 0.5 mg/kg, route intravenous; settings: in vivo, 0.5 mg/kg
[12] = Oral bioavailability in dog at 1.0 mg/kg; format: ADME, organism-based, Canis lupus familiaris; settings: in vivo
[13] = Solubility of the compound; format: physicochemical
[14] = Distribution coefficient, log D of the compound; format: physicochemical; settings: octanol/water
[15] = Plasma concentration in human HCT116 cells xenografted CD1 mouse at 15 mg/kg, ip after 6 hrs; format: ADME, organism-based, HCT-116; set-up: dose 15 mg/kg, route intraperitoneal
[16] = Plasma concentration in human HCT116 cells xenografted CD1 mouse at 15 mg/kg, ip after 24 hrs; format: ADME, organism-based, HCT-116; set-up: dose 15 mg/kg, route intraperitoneal
[17] = Plasma concentration in human HCT116 cells xenografted CD1 mouse at 15 mg/kg, ip after 48 hrs; format: ADME, organism-based, HCT-116; set-up: dose 15 mg/kg, route intraperitoneal
[18] = Plasma concentration in human HCT116 cells xenografted CD1 mouse at 15 mg/kg, ip after 72 hrs; format: ADME, organism-based, HCT-116; set-up: dose 15 mg/kg, route intraperitoneal
[19] = Plasma concentration in human HCT116 cells xenografted CD1 mouse at 150 mg/kg, po after 6 hrs; format: ADME, organism-based, HCT-116; set-up: dose 150 mg/kg, route oral
[20] = Plasma concentration in human HCT116 cells xenografted CD1 mouse at 150 mg/kg, po after 24 hrs; format: ADME, organism-based, HCT-116; set-up: dose 150 mg/kg, route oral
[21] = Plasma concentration in human HCT116 cells xenografted CD1 mouse at 300 mg/kg, po after 6 hrs; format: ADME, organism-based, HCT-116; set-up: dose 300 mg/kg, route oral
[22] = Plasma concentration in human HCT116 cells xenografted CD1 mouse at 300 mg/kg, po after 24 hrs; format: ADME, organism-based, HCT-116; set-up: dose 300 mg/kg, route oral
Canis familiaris [23] = assay: Plasma concentration in CV dog at 10 mg/kg, iv; format: ADME, organism-based, Canis lupus familiaris; set-up: dose 10 mg/kg, route intravenous; settings: in vivo
Canis familiaris [24] = assay: Plasma concentration in CV dog at 3 mg/kg, iv; format: ADME, organism-based, Canis lupus familiaris; set-up: dose 3 mg/kg, route intravenous; settings: in vivo

| SMILES | half-life [1] | bioavailability [4] | Cmax [5] | AUC [6] | clearance [7] | Vd [8] | clearance [9] | Vd [10] | half-life [11] | bioavailability [12] | also measured |
| --- | --- | --- | --- | --- | --- | --- | --- | --- | --- | --- | --- |
| C[C@H]1CN(c2ccc(C(=O)Nc3ccccc3N)cn2)CCN1C(=O)OCc1ccccc1 | 0.93 h | 37% | – | – | – | – | – | – | – | – | clearance [2]: 7.4 mL/min/kg; half-life [3]: 5.6 h |
| Nc1ccc(-c2cccs2)cc1NC(=O)c1ccc(N2CCC3(CC2)CNC(=O)N3)nc1 | – | – | 2 µM | 10 µM·h | – | – | – | – | – | – | – |
| Nc1ccc(-c2cccs2)cc1NC(=O)c1ccc(N2CCC3(CC2)COC(=O)N3)nc1 | 2.6 h | 13% | 6 µM | 14 µM·h | 7.4 mL/min/kg | 0.47 L/kg | 9.8 mL/min/kg | 2.3 L/kg | 6.8 h | 18% | – |

Second part, led by results:

| half-life [1] | bioavailability [4] | Cmax [5] | AUC [6] | clearance [7] | Vd [8] | clearance [9] | Vd [10] | half-life [11] | bioavailability [12] | SMILES | also measured |
| --- | --- | --- | --- | --- | --- | --- | --- | --- | --- | --- | --- |
| – | – | 34 µM | 88 µM·h | – | – | – | – | – | – | Nc1ccc(-c2cccs2)cc1NC(=O)c1ccc(N2CCC3(CCNC3=O)CC2)nc1 | – |
| 6.2 h | 23% | – | – | 31 mL/min/kg | 8.6 L/kg | 5.9 mL/min/kg | 3.3 L/kg | 6.7 h | 100% | Nc1ccc(-c2cccs2)cc1NC(=O)c1ccc(N2CCC3(CCNC3)CC2)nc1 | solubility [13]: 186 µM (≈ 80.6 µg/mL); logD [14]: 1.45; concentration at 6 h [15]: 3.4 µM; concentration at 24 h [16]: 0.32 µM; concentration at 48 h [17]: 0.05 µM; concentration at 72 h [18]: 0.03 µM; concentration at 6 h [19]: 11 µM; concentration at 24 h [20]: 0.22 µM; concentration at 6 h [21]: 21 µM; concentration at 24 h [22]: 0.78 µM; concentration (Canis familiaris [23]): 30 µM; concentration (Canis familiaris [24]): 6 µM |
